Legend:
Settings in all cases: growth mode: biofilm, 24 h; exposure time: 24 h
[1] = compound: T1, NC[C@H]1O[C@H](O[C@H]2[C@H](O)[C@@H](O[C@H]3O[C@H](CO)[C@@H](O)[C@H](N)[C@H]3O)[C@H](N)C[C@@H]2N)[C@H](N)C[C@@H]1O [tobramycin]; assay: minimum concentration of killing, 1-log CFU reduction of biofilm (MCK90); higher = more biofilm tolerance
Protocol: (§1)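 Clinical P. aeruginosa isolates were grown as static biofilms for 24 h at 37 °C in LB in half-area 96-well plates, then exposed for 24 h to tobramycin at 1, 4, 16, 64, 256 or […]. Surviving CFU were counted by spotting serial dilutions. MCK is the lowest tested concentration giving the stated log reduction in CFU versus an untreated control; '>1024' means the reduction was not reached at the top dose, and 1 is the lowest dose tested (≤1).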

[2] = compound: T1, tobramycin; assay: minimum concentration of killing, 2-log CFU reduction of biofilm (MCK99); higher = more biofilm tolerance
Protocol: as §1

[3] = compound: T2, CCC(C)CCCC(=O)N[C@@H](CCN)C(=O)N[C@H](C(=O)N[C@@H](CCN)C(=O)N[C@H]1CCNC(=O)[C@H]([C@@H](C)O)NC(=O)[C@H](CCN)NC(=O)[C@H](CCN)NC(=O)[C@H](CC(C)C)NC(=O)[C@@H](CC(C)C)NC(=O)[C@H](CCN)NC1=O)[C@@H](C)O [colistin]; assay: minimum concentration of killing, 4-log CFU reduction of biofilm (MCK99.99); higher = more biofilm tolerance
Protocol: as §1, with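 “colistin” for “tobramycin”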

[4] = compound: T1, tobramycin; assay: minimum concentration eradicating biofilm below detection limit (MCK-E); higher = more biofilm tolerance
Protocol: as §1

[5] = compound: T2, colistin; assay: as above
Protocol: as §1, with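 “colistin” for “tobramycin”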

[6] = compound: T2, colistin; assay: minimum concentration of killing, 2-log CFU reduction of biofilm (MCK99); higher = more biofilm tolerance
Protocol: as §1, with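 “colistin” for “tobramycin”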

[7] = compound: T2, colistin; assay: minimum concentration of killing, 1-log CFU reduction of biofilm (MCK90); higher = more biofilm tolerance
Protocol: as §1, with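 “colistin” for “tobramycin”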

[8] = compound: T1, tobramycin; assay: minimum concentration of killing, 4-log CFU reduction of biofilm (MCK99.99); higher = more biofilm tolerance
Protocol: as §1

| Test System | minimum concentration of killing [1] | minimum concentration of killing [2] | minimum concentration of killing [3] | minimum concentration eradicating biofilm below detection limit [4] | minimum concentration eradicating biofilm below detection limit [5] | minimum concentration of killing [6] | minimum concentration of killing [7] | minimum concentration of killing [8] |
| --- | --- | --- | --- | --- | --- | --- | --- | --- |
| Pseudomonas aeruginosa clinical isolate F1968 | 4 µg/mL | 64 µg/mL | 256 µg/mL | 1020 µg/mL | 256 µg/mL | 256 µg/mL | 64 µg/mL | 256 µg/mL |
| Pseudomonas aeruginosa clinical isolate ESP012 | 256 µg/mL | > 1020 µg/mL | 64 µg/mL | > 1020 µg/mL | 64 µg/mL | 64 µg/mL | 64 µg/mL | > 1020 µg/mL |
| Pseudomonas aeruginosa clinical isolate ESP075 | ≤ 1 µg/mL | 4 µg/mL | 256 µg/mL | 256 µg/mL | 256 µg/mL | 256 µg/mL | 256 µg/mL | 64 µg/mL |
| Pseudomonas aeruginosa clinical isolate ESP011 | 16 µg/mL | 256 µg/mL | 64 µg/mL | 1020 µg/mL | 64 µg/mL | 16 µg/mL | 16 µg/mL | 1020 µg/mL |
| Pseudomonas aeruginosa clinical isolate ESP003 | 16 µg/mL | 256 µg/mL | 256 µg/mL | 1020 µg/mL | 256 µg/mL | 256 µg/mL | 256 µg/mL | 1020 µg/mL |
| Pseudomonas aeruginosa clinical isolate ESP076 | > 1020 µg/mL | > 1020 µg/mL | 256 µg/mL | > 1020 µg/mL | 256 µg/mL | 256 µg/mL | 256 µg/mL | > 1020 µg/mL |
| Pseudomonas aeruginosa clinical isolate ESP038 | ≤ 1 µg/mL | 4 µg/mL | 256 µg/mL | 64 µg/mL | 256 µg/mL | 64 µg/mL | 64 µg/mL | 4 µg/mL |
| Pseudomonas aeruginosa clinical isolate F1727 | 4 µg/mL | 4 µg/mL | 256 µg/mL | 1020 µg/mL | 256 µg/mL | 256 µg/mL | 256 µg/mL | 1020 µg/mL |
| Pseudomonas aeruginosa clinical isolate ESP013 | > 1020 µg/mL | > 1020 µg/mL | 256 µg/mL | > 1020 µg/mL | 1020 µg/mL | 64 µg/mL | 64 µg/mL | > 1020 µg/mL |
| Pseudomonas aeruginosa clinical isolate ESP036 | ≤ 1 µg/mL | 4 µg/mL | 256 µg/mL | 64 µg/mL | 256 µg/mL | 256 µg/mL | 256 µg/mL | 16 µg/mL |
| Pseudomonas aeruginosa clinical isolate F1775 | ≤ 1 µg/mL | ≤ 1 µg/mL | 256 µg/mL | 1020 µg/mL | 256 µg/mL | 256 µg/mL | 16 µg/mL | 16 µg/mL |
| Pseudomonas aeruginosa clinical isolate ESP077 | 1020 µg/mL | 1020 µg/mL | 256 µg/mL | > 1020 µg/mL | 256 µg/mL | 64 µg/mL | 64 µg/mL | 1020 µg/mL |
| Pseudomonas aeruginosa clinical isolate ESP015 | 4 µg/mL | 64 µg/mL | 256 µg/mL | 256 µg/mL | 256 µg/mL | 256 µg/mL | 64 µg/mL | 256 µg/mL |
| Pseudomonas aeruginosa clinical isolate ESP055 | ≤ 1 µg/mL | 16 µg/mL | 256 µg/mL | 64 µg/mL | 256 µg/mL | 256 µg/mL | 64 µg/mL | 16 µg/mL |
| Pseudomonas aeruginosa clinical isolate F1800 | ≤ 1 µg/mL | ≤ 1 µg/mL | 1020 µg/mL | 1020 µg/mL | 1020 µg/mL | 256 µg/mL | 16 µg/mL | 256 µg/mL |
| Pseudomonas aeruginosa clinical isolate ESP027 | ≤ 1 µg/mL | 4 µg/mL | 64 µg/mL | 1020 µg/mL | 64 µg/mL | 64 µg/mL | 16 µg/mL | 1020 µg/mL |
| Pseudomonas aeruginosa clinical isolate CH5596 | 4 µg/mL | 4 µg/mL | 256 µg/mL | 256 µg/mL | 256 µg/mL | 64 µg/mL | 64 µg/mL | 64 µg/mL |
| Pseudomonas aeruginosa clinical isolate ESP044 | 4 µg/mL | 64 µg/mL | 256 µg/mL | 256 µg/mL | 256 µg/mL | 64 µg/mL | 64 µg/mL | 256 µg/mL |

Source: the supplement of paper PMC8920030
